PubChem BioAssay (NCI)
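Interpolation was linear, between the two tested concentrations surrounding the appropriate level; five concentrations were tested over 48 hours in 96-well plates. TGI denotes the concentration required for complete inhibition of growth.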

Legend:
Assay in all cases: growth of human tumour cells (NCI), 48 h
786-0 renal = test system: 786-0 renal
A498 renal = test system: A498 renal
A549 NSCLC = test system: A549 NSCLC
ACHN renal = test system: ACHN renal
BT-549 breast = test system: BT-549 breast
CAKI-1 renal = test system: CAKI-1 renal
CCRF-CEM leukemia = test system: CCRF-CEM leukemia
COLO 205 colon = test system: COLO 205 colon
DU-145 prostate = test system: DU-145 prostate
EKVX NSCLC = test system: EKVX NSCLC
HCC-2998 colon = test system: HCC-2998 colon
HCT-116 colon = test system: HCT-116 colon
HCT-15 colon = test system: HCT-15 colon
HL-60(TB) leukemia = test system: HL-60(TB) leukemia
HOP-62 NSCLC = test system: HOP-62 NSCLC
HOP-92 NSCLC = test system: HOP-92 NSCLC
HS 578T breast = test system: HS 578T breast
HT29 colon = test system: HT29 colon
IGROV1 ovarian = test system: IGROV1 ovarian
K-562 leukemia = test system: K-562 leukemia
KM12 colon = test system: KM12 colon
LOX IMVI melanoma = test system: LOX IMVI melanoma
M14 melanoma = test system: M14 melanoma
MALME-3M melanoma = test system: MALME-3M melanoma
MCF7 breast = test system: MCF7 breast
MDA-MB-231 breast = test system: MDA-MB-231 breast
MDA-MB-435 = test system: MDA-MB-435
MDA-N = test system: MDA-N
MOLT-4 leukemia = test system: MOLT-4 leukemia
NCI-H226 lung = test system: NCI-H226 lung
NCI-H23 lung = test system: NCI-H23 lung
NCI-H460 lung = test system: NCI-H460 lung
NCI-H522 lung = test system: NCI-H522 lung
NCI/ADR-RES ovarian = test system: NCI/ADR-RES ovarian
OVCAR-3 ovarian = test system: OVCAR-3 ovarian
OVCAR-4 ovarian = test system: OVCAR-4 ovarian
OVCAR-5 ovarian = test system: OVCAR-5 ovarian
OVCAR-8 ovarian = test system: OVCAR-8 ovarian
PC-3 prostate = test system: PC-3 prostate
RPMI-8226 leukemia = test system: RPMI-8226 leukemia
RXF 393 renal = test system: RXF 393 renal
SF-268 CNS = test system: SF-268 CNS
SF-295 CNS = test system: SF-295 CNS
SF-539 CNS = test system: SF-539 CNS
SK-MEL-28 melanoma = test system: SK-MEL-28 melanoma
SK-MEL-5 melanoma = test system: SK-MEL-5 melanoma
SK-OV-3 ovarian = test system: SK-OV-3 ovarian
SN12C renal = test system: SN12C renal
SNB-19 CNS = test system: SNB-19 CNS
SNB-75 CNS = test system: SNB-75 CNS
SR leukemia = test system: SR leukemia
SW-620 colon = test system: SW-620 colon
T-47D breast = test system: T-47D breast
TK-10 renal = test system: TK-10 renal
U251 CNS = test system: U251 CNS
UACC-257 melanoma = test system: UACC-257 melanoma
UACC-62 melanoma = test system: UACC-62 melanoma
UO-31 renal = test system: UO-31 renal
SK-MEL-2 melanoma = test system: SK-MEL-2 melanoma

CCOC(=O)NN(C(=O)OCC)C(C(=O)c1ccccc1)N(NC(=O)OCC)C(=O)OCC
TGI (786-0 renal): > 100 µM
TGI (A498 renal): > 100 µM
TGI (A549 NSCLC): > 100 µM
TGI (ACHN renal): > 100 µM
TGI (BT-549 breast): > 100 µM
TGI (CAKI-1 renal): > 100 µM
TGI (CCRF-CEM leukemia): > 100 µM
TGI (COLO 205 colon): > 100 µM
TGI (DU-145 prostate): > 100 µM
TGI (EKVX NSCLC): > 100 µM
TGI (HCC-2998 colon): > 100 µM
TGI (HCT-116 colon): > 100 µM
TGI (HCT-15 colon): > 100 µM
TGI (HL-60(TB) leukemia): > 100 µM
TGI (HOP-62 NSCLC): > 100 µM
TGI (HOP-92 NSCLC): > 100 µM
TGI (HS 578T breast): > 100 µM
TGI (HT29 colon): > 100 µM
TGI (IGROV1 ovarian): > 100 µM
TGI (K-562 leukemia): > 100 µM
TGI (KM12 colon): > 100 µM
TGI (LOX IMVI melanoma): > 100 µM
TGI (M14 melanoma): > 100 µM
TGI (MALME-3M melanoma): > 100 µM
TGI (MCF7 breast): > 100 µM
TGI (MDA-MB-231 breast): > 100 µM
TGI (MDA-MB-435): > 100 µM
TGI (MDA-N): > 100 µM
TGI (MOLT-4 leukemia): > 100 µM
TGI (NCI-H226 lung): > 100 µM
TGI (NCI-H23 lung): > 100 µM
TGI (NCI-H460 lung): > 100 µM
TGI (NCI-H522 lung): > 100 µM
TGI (NCI/ADR-RES ovarian): > 100 µM
TGI (OVCAR-3 ovarian): > 100 µM
TGI (OVCAR-4 ovarian): > 100 µM
TGI (OVCAR-5 ovarian): > 100 µM
TGI (OVCAR-8 ovarian): > 100 µM
TGI (PC-3 prostate): > 100 µM
TGI (RPMI-8226 leukemia): > 100 µM
TGI (RXF 393 renal): > 100 µM
TGI (SF-268 CNS): > 100 µM
TGI (SF-295 CNS): > 100 µM
TGI (SF-539 CNS): > 100 µM
TGI (SK-MEL-28 melanoma): > 100 µM
TGI (SK-MEL-5 melanoma): > 100 µM
TGI (SK-OV-3 ovarian): > 100 µM
TGI (SN12C renal): > 100 µM
TGI (SNB-19 CNS): > 100 µM
TGI (SNB-75 CNS): > 100 µM
TGI (SR leukemia): > 100 µM
TGI (SW-620 colon): > 100 µM
TGI (T-47D breast): > 100 µM
TGI (TK-10 renal): > 100 µM
TGI (U251 CNS): > 100 µM
TGI (UACC-257 melanoma): > 100 µM
TGI (UACC-62 melanoma): > 100 µM
TGI (UO-31 renal): > 100 µM

CN1C(=O)C23CCCC2CC1(c1ccccc1)S3 (stereo not given)
TGI (786-0 renal): > 100 µM
TGI (A498 renal): > 100 µM
TGI (A549 NSCLC): > 100 µM
TGI (ACHN renal): > 100 µM
TGI (BT-549 breast): > 100 µM
TGI (CAKI-1 renal): > 100 µM
TGI (COLO 205 colon): > 100 µM
TGI (DU-145 prostate): > 100 µM
TGI (EKVX NSCLC): > 100 µM
TGI (HCT-116 colon): > 100 µM
TGI (HCT-15 colon): > 100 µM
TGI (HL-60(TB) leukemia): > 100 µM
TGI (HOP-62 NSCLC): > 100 µM
TGI (HOP-92 NSCLC): > 100 µM
TGI (HS 578T breast): > 100 µM
TGI (HT29 colon): > 100 µM
TGI (IGROV1 ovarian): > 100 µM
TGI (K-562 leukemia): > 100 µM
TGI (KM12 colon): > 100 µM
TGI (LOX IMVI melanoma): > 100 µM
TGI (M14 melanoma): > 100 µM
TGI (MALME-3M melanoma): > 100 µM
TGI (MCF7 breast): > 100 µM
TGI (MDA-MB-231 breast): > 100 µM
TGI (MDA-MB-435): > 100 µM
TGI (MDA-N): > 100 µM
TGI (MOLT-4 leukemia): > 100 µM
TGI (NCI-H226 lung): > 100 µM
TGI (NCI-H23 lung): > 100 µM
TGI (NCI-H522 lung): > 100 µM
TGI (NCI/ADR-RES ovarian): > 100 µM
TGI (OVCAR-3 ovarian): > 100 µM
TGI (OVCAR-4 ovarian): > 100 µM
TGI (OVCAR-5 ovarian): > 100 µM
TGI (OVCAR-8 ovarian): > 100 µM
TGI (PC-3 prostate): > 100 µM
TGI (RPMI-8226 leukemia): > 100 µM
TGI (RXF 393 renal): > 100 µM
TGI (SF-268 CNS): > 100 µM
TGI (SF-295 CNS): > 100 µM
TGI (SF-539 CNS): > 100 µM
TGI (SK-MEL-2 melanoma): > 100 µM
TGI (SK-MEL-28 melanoma): > 100 µM
TGI (SK-MEL-5 melanoma): > 100 µM
TGI (SK-OV-3 ovarian): > 100 µM
TGI (SN12C renal): > 100 µM
TGI (SNB-19 CNS): > 100 µM
TGI (SR leukemia): > 100 µM
TGI (SW-620 colon): > 100 µM
TGI (T-47D breast): > 100 µM
TGI (TK-10 renal): > 100 µM
TGI (U251 CNS): > 100 µM
TGI (UACC-257 melanoma): 80.6 µM
TGI (UACC-62 melanoma): > 100 µM
TGI (UO-31 renal): > 100 µM

CC1CN(CCO)CCN1c1ccccc1 (stereo not given)
TGI (786-0 renal): > 100 µM
TGI (A498 renal): > 100 µM
TGI (A549 NSCLC): > 100 µM
TGI (ACHN renal): > 100 µM
TGI (BT-549 breast): > 100 µM
TGI (CAKI-1 renal): > 100 µM
TGI (COLO 205 colon): > 100 µM
TGI (DU-145 prostate): > 100 µM
TGI (EKVX NSCLC): > 100 µM
TGI (HCT-116 colon): > 100 µM
TGI (HCT-15 colon): > 100 µM
TGI (HL-60(TB) leukemia): 99 µM
TGI (HOP-62 NSCLC): > 100 µM
TGI (HOP-92 NSCLC): > 100 µM
TGI (HS 578T breast): > 100 µM
TGI (HT29 colon): > 100 µM
TGI (IGROV1 ovarian): > 100 µM
TGI (K-562 leukemia): > 100 µM
TGI (KM12 colon): > 100 µM
TGI (LOX IMVI melanoma): > 100 µM
TGI (M14 melanoma): > 100 µM
TGI (MALME-3M melanoma): > 100 µM
TGI (MCF7 breast): > 100 µM
TGI (MDA-MB-231 breast): > 100 µM
TGI (MDA-MB-435): > 100 µM
TGI (MDA-N): > 100 µM
TGI (MOLT-4 leukemia): > 100 µM
TGI (NCI-H226 lung): > 100 µM
TGI (NCI-H23 lung): > 100 µM
TGI (NCI-H460 lung): > 100 µM
TGI (NCI-H522 lung): > 100 µM
TGI (NCI/ADR-RES ovarian): > 100 µM
TGI (OVCAR-3 ovarian): > 100 µM
TGI (OVCAR-4 ovarian): > 100 µM
TGI (OVCAR-5 ovarian): > 100 µM
TGI (OVCAR-8 ovarian): > 100 µM
TGI (PC-3 prostate): > 100 µM
TGI (RPMI-8226 leukemia): > 100 µM
TGI (RXF 393 renal): > 100 µM
TGI (SF-268 CNS): > 100 µM
TGI (SF-295 CNS): > 100 µM
TGI (SF-539 CNS): > 100 µM
TGI (SK-MEL-2 melanoma): > 100 µM
TGI (SK-MEL-28 melanoma): > 100 µM
TGI (SK-MEL-5 melanoma): > 100 µM
TGI (SK-OV-3 ovarian): > 100 µM
TGI (SN12C renal): > 100 µM
TGI (SNB-19 CNS): > 100 µM
TGI (SNB-75 CNS): > 100 µM
TGI (SR leukemia): > 100 µM
TGI (SW-620 colon): > 100 µM
TGI (T-47D breast): > 100 µM
TGI (TK-10 renal): > 100 µM
TGI (U251 CNS): > 100 µM
TGI (UACC-257 melanoma): > 100 µM
TGI (UACC-62 melanoma): > 100 µM
TGI (UO-31 renal): > 100 µM
